{
  "source": "patent US10259810B2",
  "about": "“N-sulfonylated pyrazolo[3,4-b]pyridin-6-carboxamides and method of use” (AbbVie S.à.r.l., priority 2015, dated 2019)",
  "key": {"ΔF508-CFTR [1]": {"molecular_target": "T1, ΔF508-CFTR (Homo sapiens, UniProt P13569, DEL508-508)", "T1 construct": "host or cells: CFBE41o-, doxycycline-inducible", "T1 sequence (P13569 with tags, fused parts or gaps DEL508-508)": "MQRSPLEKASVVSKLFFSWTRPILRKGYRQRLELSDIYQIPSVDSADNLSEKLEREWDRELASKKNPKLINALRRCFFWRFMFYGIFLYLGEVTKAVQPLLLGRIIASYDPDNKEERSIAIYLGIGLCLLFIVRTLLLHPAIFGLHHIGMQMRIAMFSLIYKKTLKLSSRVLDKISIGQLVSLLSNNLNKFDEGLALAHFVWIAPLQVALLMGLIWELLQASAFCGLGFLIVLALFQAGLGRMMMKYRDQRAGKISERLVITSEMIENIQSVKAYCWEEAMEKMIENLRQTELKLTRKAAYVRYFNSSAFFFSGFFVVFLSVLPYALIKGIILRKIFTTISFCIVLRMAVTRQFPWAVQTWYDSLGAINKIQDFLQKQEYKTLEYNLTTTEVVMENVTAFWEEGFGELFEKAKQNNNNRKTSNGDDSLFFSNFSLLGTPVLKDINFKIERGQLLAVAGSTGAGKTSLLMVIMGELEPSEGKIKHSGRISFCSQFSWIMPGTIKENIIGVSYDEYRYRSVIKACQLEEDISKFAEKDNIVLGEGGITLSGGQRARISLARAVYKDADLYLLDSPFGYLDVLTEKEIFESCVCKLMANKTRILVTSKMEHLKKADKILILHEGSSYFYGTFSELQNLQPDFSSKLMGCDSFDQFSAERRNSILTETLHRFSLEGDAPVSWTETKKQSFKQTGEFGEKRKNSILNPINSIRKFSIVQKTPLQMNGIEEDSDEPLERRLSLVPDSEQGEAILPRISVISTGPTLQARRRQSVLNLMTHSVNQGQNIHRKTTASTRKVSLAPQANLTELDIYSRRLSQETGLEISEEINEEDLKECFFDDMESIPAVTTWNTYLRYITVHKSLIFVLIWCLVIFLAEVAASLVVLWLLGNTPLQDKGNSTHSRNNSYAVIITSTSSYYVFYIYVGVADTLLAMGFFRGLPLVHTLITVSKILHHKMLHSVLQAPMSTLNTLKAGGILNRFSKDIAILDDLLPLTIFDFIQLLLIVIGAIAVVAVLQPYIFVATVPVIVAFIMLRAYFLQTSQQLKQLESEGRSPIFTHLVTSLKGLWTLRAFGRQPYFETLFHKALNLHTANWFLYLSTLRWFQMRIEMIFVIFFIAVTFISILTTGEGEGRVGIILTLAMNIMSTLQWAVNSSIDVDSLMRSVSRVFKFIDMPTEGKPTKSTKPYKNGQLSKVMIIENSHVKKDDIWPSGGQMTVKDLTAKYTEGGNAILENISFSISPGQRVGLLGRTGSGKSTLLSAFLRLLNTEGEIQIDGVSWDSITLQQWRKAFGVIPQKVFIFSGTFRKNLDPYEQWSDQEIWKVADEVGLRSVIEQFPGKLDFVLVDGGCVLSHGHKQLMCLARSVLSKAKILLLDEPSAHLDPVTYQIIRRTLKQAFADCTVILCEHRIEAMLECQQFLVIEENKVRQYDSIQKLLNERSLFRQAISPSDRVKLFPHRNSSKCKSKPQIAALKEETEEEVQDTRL", "experiment": "CFTR cell surface levels using HRP-tagged ΔF508-CFTR expressing CFBE cells, in the presence of a co-corrector", "type": "cell-based", "conditions": "HRP-tagged ΔF508-CFTR CFBE cells, in the presence of 3 μM co-corrector; for EC50: read-out: EC50", "method_in_brief": "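Chemiluminescent read-out of surface HRP (15 min, dark) after PBS washes. Activity is normalized as 100×(sample−DMSO)/(3 μM co-corrector alone−DMSO).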"}, "ΔF508-CFTR [2]": {"molecular_target": "T1, ΔF508-CFTR", "experiment": "CFTR cell surface levels using HRP-tagged ΔF508-CFTR expressing CFBE cells, intrinsic corrector capacity", "type": "cell-based", "parameters": "% Activation: concentration or dose not given beside the values", "conditions": "HRP-tagged ΔF508-CFTR expressing CFBE41o- cells, compound alone (intrinsic corrector capacity), 20 hours at 33° C.; for EC50: read-out: EC50", "text": "Measuring CFTR Cell Surface Levels Using HRP-Tagged ΔF508-CFTR Expressing CFBE Cells\nThe HRP-tagged ΔF508-CFTR cell assay measures the expression of CFTR-ΔF508 at the plasma membrane. CFTR-ΔF508 has a folding defect leading to absence of protein at the plasma membrane. This assay is used to evaluate the capacity of compounds to increase the expression of CFTR-ΔF508 at the plasma membrane. The CFTR-ΔF508 is tagged with HRP (horse radish peroxidase enzyme) within the ECL4 (Extracellular loop 4) of CFTR (Phuan, P.-W. et al. Synergy-based small-molecule screen using a human lung epithelial cell line yields ΔF508-CFTR correctors that augment VX-809 maximal efficacy. Mol. Pharmacol. 86, 42-51 (2014)). When HRP-tagged ΔF508-CFTR is present at the plasma membrane, the HRP enzyme activity can be measured. The amount of CFTR-ΔF508 that can be rescued to the plasma membrane is correlated with the amount of functional enzyme that can be measured.\nThere are several ways to measure the capacity of compounds to rescue CFTR-ΔF508 to the plasma membrane; either compounds are evaluated on their own and the impact on plasma membrane levels is measured or compounds are evaluated in combination with a co-corrector, i.e. a compound that rescues CFTR-ΔF508 to the plasma membrane but rescue can be enhanced by addition of compounds due to a complementary mode of action.\nActivity of Compounds for their Intrinsic Corrector Capacity:\nFor this purpose doxycycline-inducible ΔF508-CFTR-HRP expressing CFBE4lo− cells (obtained from Gergely Lukacs, McGill University) were maintained in MEM (Gibco; 31095) supplemented with 10% fetal bovine serum (Hyclone; SV30160.03) under puromycin (3 μg/mL) and G418 selection (0.2 mg/mL). For compound testing, cells were seeded at 4000 cells/well in white 384-well plates (Greiner; 781080) in 50 μL medium containing 0.5 μg/mL doxycycline and incubated for 68 hours at 37° C., 5% CO2. On day four, […] compounds diluted in PBS were added to the plates at a final DMSO concentration of 0.1%. All compound plates contained negative controls (DMSO) and positive controls ([…] corrector, 3-[(2R,4R)-4-({[1-(2,2-difluoro-1,3-benzodioxol-5-yl)cyclopropyl]carbonyl}amino)-7-methoxy-3,4-dihydro-2H-chromen-2-yl]benzoic acid). Cell plates were incubated at 33° C., 5% CO2 for 20 hours. On day five, the cells were washed five times with phosphate-buffered saline, and HRP activity was assayed by the addition of 50 μL/well of HRP substrate (SuperSignal™ West Pico Chemiluminescent Substrate, Thermo Scientific; 34080). After incubation for 15 minutes in the dark, chemiluminescence was measured using a plate reader (EnVision®, Perkin Elmer). Raw data were normalized to percentage activity values using the equation: 100×(Sample−Negative control)/(Positive control−Negative Control)."}},
  "data": [
    {"smiles": "COCC1CCN(c2cc(C(=O)NS(=O)(=O)CC(=O)OC)nc3c2c(C2CCC2)nn3-c2ccccc2)CC1", "note": "[Compound 376, methyl ({3-cyclobutyl-4-[4-(methoxymethyl)piperidin-1-yl]-1-phenyl-1H-pyrazolo[3,4-b]pyridine-6-carbonyl}sulfamoyl)acetate]", "values": [
      {"measurement": "% Activation", "setting": "ΔF508-CFTR [1]", "result": 496.8, "unit": "%"},
      {"measurement": "EC50", "setting": "ΔF508-CFTR [1]", "result": 51.6, "unit": "nM"},
      {"measurement": "% Activation", "setting": "ΔF508-CFTR [2]", "result": 355.7, "unit": "%"},
      {"measurement": "EC50", "setting": "ΔF508-CFTR [2]", "result": 117, "unit": "nM"}
    ]},
    {"smiles": "COCCS(=O)(=O)NC(=O)c1cc(N2CCC(N3CCOCC3)CC2)c2c(C3CCC3)nn(-c3ccccc3)c2n1", "note": "[Compound 438, 3-cyclobutyl-N-(2-methoxyethanesulfonyl)-4-[4-(morpholin-4-yl)piperidin-1-yl]-1-phenyl-1H-pyrazolo[3,4-b]pyridine-6-carboxamide]", "values": [
      {"measurement": "% Activation", "setting": "ΔF508-CFTR [1]", "result": 541.5, "unit": "%"},
      {"measurement": "EC50", "setting": "ΔF508-CFTR [1]", "result": 380, "unit": "nM"},
      {"measurement": "% Activation", "setting": "ΔF508-CFTR [2]", "result": 337, "unit": "%"},
      {"measurement": "EC50", "setting": "ΔF508-CFTR [2]", "result": 392, "unit": "nM"}
    ]},
    {"smiles": "COS(=O)(=O)NC(=O)c1cc(N2CCC(N3CCOCC3)CC2)c2c(C3CCC3)nn(-c3ccc(F)cc3)c2n1", "note": "[Compound 606, methyl {3-cyclobutyl-1-(4-fluorophenyl)-4-[4-(morpholin-4-yl)piperidin-1-yl]-1H-pyrazolo[3,4-b]pyridine-6-carbonyl}sulfamate]", "values": [
      {"measurement": "% Activation", "setting": "ΔF508-CFTR [1]", "result": 513.7, "unit": "%"},
      {"measurement": "EC50", "setting": "ΔF508-CFTR [1]", "result": 469, "unit": "nM"},
      {"measurement": "% Activation", "setting": "ΔF508-CFTR [2]", "result": 283.8, "unit": "%"},
      {"measurement": "EC50", "setting": "ΔF508-CFTR [2]", "result": 973, "unit": "nM"}
    ]},
    {"smiles": "CS(=O)(=O)NC(=O)c1cc(N2CCC(COCc3ccccc3)CC2)c2c(C3CCC3)nn(-c3ccccc3)c2n1", "note": "[Compound 213, 4-{4-[(benzyloxy)methyl]piperidin-1-yl}-3-cyclobutyl-N-(methanesulfonyl)-1-phenyl-1H-pyrazolo[3,4-b]pyridine-6-carboxamide]", "values": [
      {"measurement": "% Activation", "setting": "ΔF508-CFTR [1]", "result": 469.6, "unit": "%"},
      {"measurement": "EC50", "setting": "ΔF508-CFTR [1]", "result": 337, "unit": "nM"},
      {"measurement": "% Activation", "setting": "ΔF508-CFTR [2]", "result": 267.5, "unit": "%"},
      {"measurement": "EC50", "setting": "ΔF508-CFTR [2]", "result": 546, "unit": "nM"}
    ]},
    {"smiles": "COCCN1CCN(C2CCN(c3cc(C(=O)NS(=O)(=O)N(C)C)nc4c3c(C3CCC3)nn4-c3ccc(F)cc3)CC2)CC1", "note": "[Compound 607, 3-cyclobutyl-N-(dimethylsulfamoyl)-1-(4-fluorophenyl)-4-{4-[4-(2-methoxyethyl)piperazin-1-yl]piperidin-1-yl}-1H-pyrazolo[3,4-b]pyridine-6-carboxamide]", "values": [
      {"measurement": "% Activation", "setting": "ΔF508-CFTR [1]", "result": 484.3, "unit": "%"},
      {"measurement": "EC50", "setting": "ΔF508-CFTR [1]", "result": 667, "unit": "nM"},
      {"measurement": "% Activation", "setting": "ΔF508-CFTR [2]", "result": 272.6, "unit": "%"},
      {"measurement": "EC50", "setting": "ΔF508-CFTR [2]", "result": 342, "unit": "nM"}
    ]},
    {"smiles": "CC(C)c1nn(C2CCCOC2)c2nc(C(=O)NS(C)(=O)=O)cc(-c3ccc(N4CCOCC4)cc3)c12", "note": "(stereo not drawn) [Compound 39, N-(methanesulfonyl)-4-[4-(morpholin-4-yl)phenyl]-1-(oxan-3-yl)-3-(propan-2-yl)-1H-pyrazolo[3,4-b]pyridine-6-carboxamide]", "values": [
      {"measurement": "% Activation", "setting": "ΔF508-CFTR [1]", "result": 378.63, "unit": "%"},
      {"measurement": "EC50", "setting": "ΔF508-CFTR [1]", "result": 508, "unit": "nM"},
      {"measurement": "% Activation", "setting": "ΔF508-CFTR [2]", "result": 143.4, "unit": "%"},
      {"measurement": "EC50", "setting": "ΔF508-CFTR [2]", "result": 838, "unit": "nM"}
    ]},
    {"smiles": "CS(=O)(=O)NC(=O)c1cc(N2CCCC3(CC3)C2)c2c(C3CCC3)nn(-c3ccccc3)c2n1", "note": "[Compound 205, 4-(5-azaspiro[2.5]octan-5-yl)-3-cyclobutyl-N-(methanesulfonyl)-1-phenyl-1H-pyrazolo[3,4-b]pyridine-6-carboxamide]", "values": [
      {"measurement": "% Activation", "setting": "ΔF508-CFTR [1]", "result": 416.4, "unit": "%"},
      {"measurement": "EC50", "setting": "ΔF508-CFTR [1]", "result": 856, "unit": "nM"},
      {"measurement": "% Activation", "setting": "ΔF508-CFTR [2]", "result": 208.5, "unit": "%"},
      {"measurement": "EC50", "setting": "ΔF508-CFTR [2]", "result": 956, "unit": "nM"}
    ]},
    {"smiles": "CN(C)S(=O)(=O)NC(=O)c1cc(N2CCC(N3CCC(C(F)(F)F)C3)CC2)c2c(C3CCC3)nn(-c3ccc(F)cc3)c2n1", "note": "(stereo not drawn) [Compound 560, 3-cyclobutyl-N-(dimethylsulfamoyl)-1-(4-fluorophenyl)-4-{4-[3-(trifluoromethyl)pyrrolidin-1-yl]piperidin-1-yl}-1H-pyrazolo[3,4-b]pyridine-6-carboxamide]", "values": [
      {"measurement": "% Activation", "setting": "ΔF508-CFTR [1]", "result": 544.45, "unit": "%"},
      {"measurement": "EC50", "setting": "ΔF508-CFTR [1]", "result": 66.1, "unit": "nM"},
      {"measurement": "% Activation", "setting": "ΔF508-CFTR [2]", "result": 260.4, "unit": "%"},
      {"measurement": "EC50", "setting": "ΔF508-CFTR [2]", "result": 96.3, "unit": "nM"}
    ]},
    {"smiles": "Cc1nn(-c2ccc(F)c(F)c2)c2nc(C(=O)NS(C)(=O)=O)cc(-c3ccc(N4CCOCC4)cc3)c12", "note": "[Compound 25, 1-(3,4-difluorophenyl)-N-(methanesulfonyl)-3-methyl-4-[4-(morpholin-4-yl)phenyl]-1H-pyrazolo[3,4-b]pyridine-6-carboxamide]", "values": [
      {"measurement": "% Activation", "setting": "ΔF508-CFTR [1]", "result": 437.17, "unit": "%"},
      {"measurement": "EC50", "setting": "ΔF508-CFTR [1]", "result": 640, "unit": "nM"},
      {"measurement": "% Activation", "setting": "ΔF508-CFTR [2]", "result": 247.23, "unit": "%"},
      {"measurement": "EC50", "setting": "ΔF508-CFTR [2]", "result": 997, "unit": "nM"}
    ]}
  ]
}
